Test results as given in article PMC2362906, “Effects of new 17α-hydroxylase/C17,20-lyase inhibitors on LNCaP prostate cancer cell growth in vitro and in vivo” (British Journal of Cancer, 1999).
Entries after “also recorded” stand apart in the source; their conditions may differ.

Legend:
[1] = test system: LNCaP cells; test: Testosterone-stimulated wild-type LNCaP cell growth; assay type: cell-based, human
From the text: (§1) Prostate cancer is the most common malignancy and the second leading cause of cancer-related deaths among men in the US and the UK (Shibata et al, 1998). […] Steroidal 17-hydroxylase/C17,20 -lyase (P450c17) (EC 1.14.99.0) was selected as the target enzyme for inhibition, as this is a key regulatory enzyme of androgen synthesis. P450c17 catal- yses two sequential reactions in the steroid biosynthetic pathway and converts pregnenolone and progesterone to the C-19 andro- gens, dehydroepiandrosterone and androstenedione respectively. This enzyme has an identical amino acid sequence in testicular and adrenal tissues (Chung et al, 1987). […] In order to evaluate the effectiveness of these inhibitors we developed a multi-step system, which utilized the LNCaP human prostate cancer cell line. LNCaP cells remain the only androgen receptor (AR)-positive prostate cancer cell line, that can be readily grown in tissue culture (Horoszewicz et al, 1983). These cells respond to androgens with increased cell proliferation and elevated expression of prostate specific antigen (PSA) (Berns et al, 1993). LNCaP cells at early passages are not only androgen-responsive, but also androgen- dependent (Pousette et al, 1997). This is similar to the situation in most tumours of prostatic cancer patients, which are initially highly responsive and dependent on androgens. […] Therefore, we employed LNCaP cells as a model for evaluating the effectiveness of our new inhibitors of androgen synthesis. In this study the compounds selected for evaluation were two groups of azolyl steroids. […] Here we report on the application of LNCaP-CYP17-transfected cells for determining the inhibitory potencies of the new compounds against the P450c17 enzyme. […] We designed and evaluated two groups of azolyl steroids: 5-non-competitive inhibitors (5NCIs), VN/63-1, VN/85-1, VN/87-1 and their corresponding 4 derivatives (4NCIs), VN/107-1, VN/108-1 and VN/109-1. The human P450c17 gene was transfected into LNCaP human prostate cancer cells, and the resultant LNCaP- CYP17 cells were utilized to evaluate the inhibitory potency of the new azolyl steroids. […] We further evaluated our inhibitors in male severe combined immuno- deficient mice bearing LNCaP tumour xenografts. […] We also utilized wild-type LNCaP prostatic carcinoma cells for evaluating the direct effects of new azolyl steroids on proliferation of these cells in vitro and in vivo. MATERIALS AND METHODS Materials The human prostate cancer cell line LNCaP was obtained from the American Type Culture Collection (Rockville, MD, USA). RPMI- 1640 medium, trypsin-EDTA (0.25%/0.02%), penicillin/strepto- mycin (P/S), geniticin (G418), and LipofectAMINE were from Gibco-BRL (Grand Island, NY, USA). Fetal bovine serum (FBS) was obtained from Summit Biotechnology Inc. (Fort Collins, CO, USA) and steroid-free FBS was prepared as described previously (Klus et al, 1996). Phenol red free IMEM and trypsin-versine were purchased from Biofluids Inc. (Rockville, MD, USA). Chloroform and acetonitrile were purchased from JT Baker, Inc (Phillipsburg, NJ, USA). Hydroxypropyl cellulose (HPC) was purchased from Sigma Chemical Co. (St Louis, MO, USA). The PSA enzyme- linked immunusorbent assay (ELISA) kit was from DSL Inc. (Webster, TX, USA). Matrigel was generously supplied by Dr Hynda Kleinman (NIH, Bethesda, MD, USA). Inhibitors of androgen synthesis: VN/63-1, VN/85-1, VN/87-1, VN/107-1, VN/108-1 and VN/109-1 were synthesized in our labo- ratory as previously described (Njar et al, 1998). […] Metribolone [17-methyl-3 H]-R1881 ([3 H]-R1881: specific activity 86 Ci mmol-1 ) was purchased from Dupont NEN (Boston, MA, USA).

[2] = biological target: T1, human 17α-hydroxylase/C17,20-lyase (P450c17) expressed in LNCaP-CYP17 cells (Homo sapiens, UniProt P05093); test: [3H]-acetic acid releasing assay (AARA) with LNCaP-CYP17 cells; assay type: cell-based; details: LNCaP-CYP17 cells, 7 μM [21-3H]17-OHP5, 16 h; mean ± s.e.m., three experiments
T1 sequence (P05093 9-508 limits assumed): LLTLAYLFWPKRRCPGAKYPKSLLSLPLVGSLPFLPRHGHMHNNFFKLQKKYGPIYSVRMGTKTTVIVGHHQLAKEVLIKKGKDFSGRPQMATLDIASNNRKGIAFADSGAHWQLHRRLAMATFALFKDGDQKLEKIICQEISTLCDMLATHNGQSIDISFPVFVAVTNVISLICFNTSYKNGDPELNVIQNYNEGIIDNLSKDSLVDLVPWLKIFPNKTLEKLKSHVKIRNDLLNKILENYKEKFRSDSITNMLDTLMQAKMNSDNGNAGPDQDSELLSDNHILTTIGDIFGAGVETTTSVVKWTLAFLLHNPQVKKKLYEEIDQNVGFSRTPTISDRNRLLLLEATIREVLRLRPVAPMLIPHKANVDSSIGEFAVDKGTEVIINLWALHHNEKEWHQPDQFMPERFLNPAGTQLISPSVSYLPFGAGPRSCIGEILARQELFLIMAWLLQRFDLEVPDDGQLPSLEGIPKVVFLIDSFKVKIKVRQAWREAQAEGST

[3] = test system: serum DHT; test: Serum DHT (RIA) in SCID mice; assay type: in vivo, male SCID mice; details: Table 2, first experiment, 28 days of treatment, 50 mg kg-1 day-1; control 243.8
From the text: as §1

[4] = test system: LNCaP cells; test: DHT-stimulated wild-type LNCaP cell growth; assay type: cell-based, human; details: 0.03 nM DHT, 9 days
From the text: as §1

[5] = test system: serum testosterone; test: Serum testosterone (RIA) in SCID mice; assay type: in vivo, male SCID mice; details: Table 2, first experiment, 28 days of treatment, 50 mg kg-1 day-1; control 1.043
From the text: as §1

[6] = biological target: human prostatic 5-reductase; parameters: method as in Njar et al, 1998; details: human prostatic microsomes; reported previously; ref Njar et al, 1998; cited from earlier work
[7] = test system: LNCaP cells; test: LNCaP cell growth in steroid-free medium; assay type: cell-based, human; details: steroid-free medium
From the text: Prostate cancer is the most common malignancy and the second leading cause of cancer-related deaths among men in the US and the UK (Shibata et al, 1998). […] Steroidal 17-hydroxylase/C17,20 -lyase (P450c17) (EC 1.14.99.0) was selected as the target enzyme for inhibition, as this is a key regulatory enzyme of androgen synthesis. P450c17 catal- yses two sequential reactions in the steroid biosynthetic pathway and converts pregnenolone and progesterone to the C-19 andro- gens, dehydroepiandrosterone and androstenedione respectively. This enzyme has an identical amino acid sequence in testicular and adrenal tissues (Chung et al, 1987). […] In order to evaluate the effectiveness of these inhibitors we developed a multi-step system, which utilized the LNCaP human prostate cancer cell line. LNCaP cells remain the only androgen receptor (AR)-positive prostate cancer cell line, that can be readily grown in tissue culture (Horoszewicz et al, 1983). These cells respond to androgens with increased cell proliferation and elevated expression of prostate specific antigen (PSA) (Berns et al, 1993). LNCaP cells at early passages are not only androgen-responsive, but also androgen- dependent (Pousette et al, 1997). This is similar to the situation in most tumours of prostatic cancer patients, which are initially highly responsive and dependent on androgens. […] Therefore, we employed LNCaP cells as a model for evaluating the effectiveness of our new inhibitors of androgen synthesis. In this study the compounds selected for evaluation were two groups of azolyl steroids. […] Here we report on the application of LNCaP-CYP17-transfected cells for determining the inhibitory potencies of the new compounds against the P450c17 enzyme. […] We designed and evaluated two groups of azolyl steroids: 5-non-competitive inhibitors (5NCIs), VN/63-1, VN/85-1, VN/87-1 and their corresponding 4 derivatives (4NCIs), VN/107-1, VN/108-1 and VN/109-1. The human P450c17 gene was transfected into LNCaP human prostate cancer cells, and the resultant LNCaP- CYP17 cells were utilized to evaluate the inhibitory potency of the new azolyl steroids. […] We further evaluated our inhibitors in male severe combined immuno- deficient mice bearing LNCaP tumour xenografts. […] We also utilized wild-type LNCaP prostatic carcinoma cells for evaluating the direct effects of new azolyl steroids on proliferation of these cells in vitro and in vivo. MATERIALS AND METHODS Materials The human prostate cancer cell line LNCaP was obtained from the American Type Culture Collection (Rockville, MD, USA). RPMI- 1640 medium, trypsin-EDTA (0.25%/0.02%), penicillin/strepto- mycin (P/S), geniticin (G418), and LipofectAMINE were from Gibco-BRL (Grand Island, NY, USA). […]

[8] = test system: LNCaP tumour xenografts; test: LNCaP tumour xenograft growth in male SCID mice; assay type: in vivo; details: first experiment
From the text: as §1

[9] = test system: serum PSA; test: Serum PSA (ELISA) in LNCaP tumour-bearing SCID mice; assay type: in vivo, male SCID mice; details: first experiment, 50 mg kg-1 day-1, 28 days
From the text: Prostate cancer is the most common malignancy and the second leading cause of cancer-related deaths among men in the US and the UK (Shibata et al, 1998). […] Steroidal 17-hydroxylase/C17,20 -lyase (P450c17) (EC 1.14.99.0) was selected as the target enzyme for inhibition, as this is a key regulatory enzyme of androgen synthesis. P450c17 catal- yses two sequential reactions in the steroid biosynthetic pathway and converts pregnenolone and progesterone to the C-19 andro- gens, dehydroepiandrosterone and androstenedione respectively. This enzyme has an identical amino acid sequence in testicular and adrenal tissues (Chung et al, 1987). […] In order to evaluate the effectiveness of these inhibitors we developed a multi-step system, which utilized the LNCaP human prostate cancer cell line. LNCaP cells remain the only androgen receptor (AR)-positive prostate cancer cell line, that can be readily grown in tissue culture (Horoszewicz et al, 1983). These cells respond to androgens with increased cell proliferation and elevated expression of prostate specific antigen (PSA) (Berns et al, 1993). LNCaP cells at early passages are not only androgen-responsive, but also androgen- dependent (Pousette et al, 1997). This is similar to the situation in most tumours of prostatic cancer patients, which are initially highly responsive and dependent on androgens. […] Therefore, we employed LNCaP cells as a model for evaluating the effectiveness of our new inhibitors of androgen synthesis. In this study the compounds selected for evaluation were two groups of azolyl steroids. […] Here we report on the application of LNCaP-CYP17-transfected cells for determining the inhibitory potencies of the new compounds against the P450c17 enzyme. […] We designed and evaluated two groups of azolyl steroids: 5-non-competitive inhibitors (5NCIs), VN/63-1, VN/85-1, VN/87-1 and their corresponding 4 derivatives (4NCIs), VN/107-1, VN/108-1 and VN/109-1. The human P450c17 gene was transfected into LNCaP human prostate cancer cells, and the resultant LNCaP- CYP17 cells were utilized to evaluate the inhibitory potency of the new azolyl steroids. […] We further evaluated our inhibitors in male severe combined immuno- deficient mice bearing LNCaP tumour xenografts. […] We also utilized wild-type LNCaP prostatic carcinoma cells for evaluating the direct effects of new azolyl steroids on proliferation of these cells in vitro and in vivo. MATERIALS AND METHODS Materials The human prostate cancer cell line LNCaP was obtained from the American Type Culture Collection (Rockville, MD, USA). RPMI- 1640 medium, trypsin-EDTA (0.25%/0.02%), penicillin/strepto- mycin (P/S), geniticin (G418), and LipofectAMINE were from Gibco-BRL (Grand Island, NY, USA). Fetal bovine serum (FBS) was obtained from Summit Biotechnology Inc. (Fort Collins, CO, USA) and steroid-free FBS was prepared as described previously (Klus et al, 1996). Phenol red free IMEM and trypsin-versine were purchased from Biofluids Inc. (Rockville, MD, USA). Chloroform and acetonitrile were purchased from JT Baker, Inc (Phillipsburg, NJ, USA). Hydroxypropyl cellulose (HPC) was purchased from Sigma Chemical Co. (St Louis, MO, USA). The PSA enzyme- linked immunusorbent assay (ELISA) kit was from DSL Inc. (Webster, TX, USA). Matrigel was generously supplied by Dr Hynda Kleinman (NIH, Bethesda, MD, USA). […]

[10] = biological target: T2, LNCaP androgen receptor (Homo sapiens, UniProt P10275, T878A); test: Androgen receptor binding assay ([3H]R1881 displacement in LNCaP cells); details: from growth and binding results
T2 construct: endogenous in cells; host or cells: LNCaP (wild-type, untransfected)
From the text: Prostate cancer is the most common malignancy and the second leading cause of cancer-related deaths among men in the US and the UK (Shibata et al, 1998). […] Steroidal 17-hydroxylase/C17,20 -lyase (P450c17) (EC 1.14.99.0) was selected as the target enzyme for inhibition, as this is a key regulatory enzyme of androgen synthesis. P450c17 catal- yses two sequential reactions in the steroid biosynthetic pathway and converts pregnenolone and progesterone to the C-19 andro- gens, dehydroepiandrosterone and androstenedione respectively. This enzyme has an identical amino acid sequence in testicular and adrenal tissues (Chung et al, 1987). […] In order to evaluate the effectiveness of these inhibitors we developed a multi-step system, which utilized the LNCaP human prostate cancer cell line. LNCaP cells remain the only androgen receptor (AR)-positive prostate cancer cell line, that can be readily grown in tissue culture (Horoszewicz et al, 1983). […] We designed and evaluated two groups of azolyl steroids: 5-non-competitive inhibitors (5NCIs), VN/63-1, VN/85-1, VN/87-1 and their corresponding 4 derivatives (4NCIs), VN/107-1, VN/108-1 and VN/109-1. […] We further evaluated our inhibitors in male severe combined immuno- deficient mice bearing LNCaP tumour xenografts. […]

T2 sequence (P10275 whole entry T878A): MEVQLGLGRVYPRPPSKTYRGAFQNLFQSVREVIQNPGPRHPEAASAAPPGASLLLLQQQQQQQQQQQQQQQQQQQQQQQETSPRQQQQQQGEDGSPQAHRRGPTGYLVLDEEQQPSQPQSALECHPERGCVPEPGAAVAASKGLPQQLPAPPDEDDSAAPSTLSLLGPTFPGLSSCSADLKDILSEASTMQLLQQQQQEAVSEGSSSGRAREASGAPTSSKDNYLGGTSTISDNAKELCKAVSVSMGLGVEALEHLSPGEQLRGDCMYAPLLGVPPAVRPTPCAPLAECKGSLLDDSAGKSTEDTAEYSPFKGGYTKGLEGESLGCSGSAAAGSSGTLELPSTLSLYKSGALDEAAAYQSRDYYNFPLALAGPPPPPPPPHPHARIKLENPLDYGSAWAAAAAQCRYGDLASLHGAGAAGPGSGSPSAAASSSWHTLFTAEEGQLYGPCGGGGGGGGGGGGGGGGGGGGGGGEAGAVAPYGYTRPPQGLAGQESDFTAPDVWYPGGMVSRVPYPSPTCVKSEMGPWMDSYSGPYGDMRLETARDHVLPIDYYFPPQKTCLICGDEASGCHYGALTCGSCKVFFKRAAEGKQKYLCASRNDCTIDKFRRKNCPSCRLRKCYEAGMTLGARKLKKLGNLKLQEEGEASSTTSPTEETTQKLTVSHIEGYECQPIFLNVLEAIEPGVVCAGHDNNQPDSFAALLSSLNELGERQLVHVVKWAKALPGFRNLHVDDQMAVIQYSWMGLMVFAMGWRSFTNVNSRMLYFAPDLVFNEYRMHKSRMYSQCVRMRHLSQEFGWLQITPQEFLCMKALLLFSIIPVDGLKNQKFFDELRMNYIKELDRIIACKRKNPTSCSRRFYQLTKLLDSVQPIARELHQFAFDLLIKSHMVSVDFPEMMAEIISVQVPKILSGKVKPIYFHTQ

C[C@]12CCC(=O)C=C1CCC1C2CC[C@]2(C)C(n3ccnc3)=CCC12 (stereo partly drawn) [VN/108-1]
Concentration that completely inhibited the growth stimulatory effect of testosterone ([1]; 0.1 nM testosterone, 9 days): 5 µM
Effect on growth-stimulating effects of androgens ([1]; wild-type LNCaP cells, testosterone or DHT): blocked the growth-stimulating effects of androgens
IC50 [2]: 2.96 ± 0.78 nM
Serum DHT [3]: 122.1 pg/mL
Concentration that completely blocked DHT stimulation [4]: 5.0 µM
Serum Testosterone [5]: 0.081 ng/mL
IC50 [6]: 142 nM
Effect on LNCaP cell growth in absence of androgens [7]: stimulated cell growth in absence of androgens
Inhibition of LNCaP tumour growth (tumour volume) ([8]; 50 mg kg-1 day-1, 4 weeks): 9%
Effect on tumour growth or tumour weights ([8]; 50 mg kg-1 day-1, 28 days): no significant effects on tumour growth or tumour weights
Serum PSA levels versus control [9]: lowest levels of serum PSA; also recorded: significantly lower
Character at LNCaP AR [10]: partial agonist of LNCaP AR
